Test system: serotonin in terminal areas
Assay: microdialysis experiments (level of serotonin in terminal areas)
Assay type: in vivo
Details: administration of agomelatine alone
From the text: Administration of agomelatine alone causes no increase in serotonin levels as measured in microdialysis experiments.

Structure (SMILES): COc1ccc2cccc(CCNC(C)=O)c2c1 [agomelatine]
- serotonin levels as measured in microdialysis experiments: no increase
